# In patent US20100247461A1, “ANTI-INFLAMMATORY COMPLEXES” (Signum Biosciences, Inc., priority 2009, published 2010):
# System: MPO activity (neutrophil infiltration) in P. acnes-injected ear
# Test: P. acnes-induced mouse ear model of inflammation - MPO endpoint
# Format: in vivo
# Settings: dose of 0.4 mg/20 μL
# Protocol: The methods for a model of P. acnes-inflammation are described elsewhere (Nakatsuji et al., J Invest Dermatol, 2008, 128: 2451-2457).
# The protocol for inducing inflammation using P. acnes bacterial challenge on the mouse ear was slightly modified from the method described previously (Natatsuji et al., 2008). Briefly, Swiss Webster (ICR, 6-8 weeks old) mouse ears were injected with living P. acnes culture intradermally. An amount of 20 μl aliquots of living P. acnes (ATCC 6919, 3×10^6 CFU) suspended in PBS was intradermally injected in the central portion of the ear. As a control, 20 μl of PBS was injected into control animals.
# To assay for inhibition of dermal neutrophil infiltration by AFC complexes, a standard method was used (see Bradley et al., J Invest Dermatol, 1982,78: 206-209; Young et al., J Invest Dermatol, 1983, 80: 48-52; De Young et al, Agents Actions, 1989, 26: 335-41; and Rao et al., Inflammation, 1993, 17: 723-41). Briefly, 6mm biopsy punches taken from both compound-treated ears as well as non-treated control ears were homogenized in 400 μl of 0.5% hexadecyltrimethylammonium bromide in 50 mM potassium phosphate buffer (pH 6.0) using the Fast Prep 24 (MP Biomedicals, Solon, Ohio). Supernatants were assayed for MPO activity using a model EL 340 96-well plate reader (BioTek Instruments, Winooski, Vt.). The percent inhibition of neutrophil infiltration by each AFC complex was determined by comparing the average MPO levels in the presence and absence of these compounds. The percent inhibition of MPO was determined by taking the average MPO activity of compound-treated ears and dividing it by the average MPO activity of 12 ears that only received the P. acnes challenge and subtracting that value from 100%. These values were corrected for the MPO activity of normal, non P. acnes-treated mouse ears of littermate controls. Summary of MPO activity ranges determined from an MPO activity assay for dexamethasone (administered at a dose of 1.6 mg/20 μL), clobetasol (administered at a dose of 0.1 mg/20 μL), salicylic acid (administered at a dose of 0.4 mg/20 μL), AFC (administered at a dose of 0.4 mg/20 μL), AFC-Strontium complex (administered at a dose of 0.4 mg/20 μL) and SFC-disodium are presented in Table 4. “+” indicates a range of 0-20%, “++” indicates a range of 20-40%, and “+++” indicates >40% inhibition.
compound,measurement,value
"CC(=O)N[C@@H](CSC/C=C(\C)CC/C=C(\C)CCC=C(C)C)C(=O)O [AFC, N-acetyl-S-farnesyl-L-cysteine, reference compound]",MPO % Inhibition,+++ (“+++” indicates >40% inhibition)
